Measured values as given in patent publication US7425557B2, “Inhibitors of glycogen synthase kinase 3” (Novartis Vaccines and Diagnostics, Inc., priority 1998, dated 2008).

molecular target: human GSK3β (Homo sapiens, UniProt P49841); experiment: Screening for GSK3 inhibitory activity using a cell-free assay; type: biochemical; conditions: read-out: IC50 with respect to GSK3
In short: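 Radiometric cell-free assay with recombinant human GSK3β phosphorylating a biotinylated peptide substrate for 3 h. Reactions were stopped with 50 μM ATP/20 mM EDTA and captured on streptavidin plates. Incorporated radiolabel was counted by scintillation and plotted against compound concentration.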

Sequence of human GSK3β (P49841 whole entry): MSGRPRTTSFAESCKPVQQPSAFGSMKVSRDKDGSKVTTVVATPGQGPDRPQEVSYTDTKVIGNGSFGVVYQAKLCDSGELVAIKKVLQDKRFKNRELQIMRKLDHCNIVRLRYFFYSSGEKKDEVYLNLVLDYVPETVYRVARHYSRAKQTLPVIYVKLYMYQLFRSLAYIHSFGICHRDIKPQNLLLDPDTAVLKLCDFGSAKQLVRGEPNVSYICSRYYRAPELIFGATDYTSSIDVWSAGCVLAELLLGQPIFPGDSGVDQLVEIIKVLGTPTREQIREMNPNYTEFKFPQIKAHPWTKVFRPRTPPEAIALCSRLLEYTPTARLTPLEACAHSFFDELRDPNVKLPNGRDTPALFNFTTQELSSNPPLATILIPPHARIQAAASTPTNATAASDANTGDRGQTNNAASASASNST

| IC50 [µM] | Structure (SMILES) |
| --- | --- |
| ≤ 1 | CCOC(=O)c1cnc(NCCNc2ccc([N+](=O)[O-])cn2)nc1-c1ccc(-c2nnn[nH]2)cc1 [ethyl 4-(4-(1H-1,2,3,4-tetraazol-5-yl)phenyl)-2-({2-[(5-nitro(2-pyridyl))amino]ethyl}amino)pyrimidine-5-carboxylate] |
| ≤ 1 | CCOC(=O)c1cnc(NCCNc2ccc([N+](=O)[O-])cn2)nc1-c1ccc(Br)cc1 [ethyl 4-(4-bromophenyl)-2-({2-[(5-nitro(2-pyridyl))amino]ethyl}amino)pyrimidine-5-carboxylate] |
| ≤ 1 | CCOC(=O)c1c(CC)nc(NCCNc2ccc(C#N)cn2)nc1-c1ccc(C(N)=O)cc1 [ethyl 4-(4-carbamoylphenyl)-2-({2-[(5-cyano(2-pyridyl))amino]ethyl}amino)-6-ethylpyrimidine-5-carboxylate] |
| ≤ 1 | CCOC(=O)c1c(-c2ccc(C(N)=O)cc2)nc(NCCNc2ccc([N+](=O)[O-])cn2)nc1-c1ccc([N+](=O)[O-])cc1 [ethyl 4-(4-carbamoylphenyl)-2-({2-[(5-nitro(2-pyridyl))amino]ethyl}-amino)-6-(4-nitrophenyl)pyrimidine-5-carboxylate] |
| ≤ 10 | CCOC(=O)c1c(CC)nc(NCCNc2ncccc2[N+](=O)[O-])nc1-c1ccc(C(N)=O)cc1 [ethyl 4-(4-carbamoylphenyl)-6-ethyl-2-({2-[(3-nitro(2-pyridyl))amino]ethyl}amino)pyrimidine-5-carboxylate] |
| ≤ 1 | CCOC(=O)c1c(CC)nc(NCCNc2ccc([N+](=O)[O-])cn2)nc1-c1ccc(C(N)=O)cc1 [ethyl 4-(4-carbamoylphenyl)-6-ethyl-2-({2-[(5-nitro(2-pyridyl))amino]ethyl}amino)pyrimidine-5-carboxylate] |
| ≤ 10 | CCOC(=O)c1c(CC)nc(NCCCNc2ccc([N+](=O)[O-])cn2)nc1-c1ccc(C(N)=O)cc1 [ethyl 4-(4-carbamoylphenyl)-6-ethyl-2-({3-[(5-nitro(2-pyridyl))amino]propyl}amino)pyrimidine-5-carboxylate] |
| ≤ 10 | CCOC(=O)c1c(CC)nc(NCCNc2ccc(C(F)(F)F)cn2)nc1-c1ccc(C(N)=O)cc1 [ethyl 4-(4-carbamoylphenyl)-6-ethyl-2-[(2-{[5-(trifluoromethyl)(2-pyridyl)]amino}-ethyl)amino]pyrimidine-5-carboxylate] |
| ≤ 10 | CCOC(=O)c1c(CC)nc(NCCNc2ccccn2)nc1-c1ccc(C(N)=O)cc1 [ethyl 4-(4-carbamoylphenyl)-6-ethyl-2-{[2-(2-pyridylamino)ethyl]-amino}pyrimidine-5-carboxylate] |
| ≤ 10 | CCOC(=O)c1c(CC)nc(NCCNc2ncccn2)nc1-c1ccc(C(N)=O)cc1 [ethyl 4-(4-carbamoylphenyl)-6-ethyl-2-{[2-(pyrimidin-2-ylamino)ethyl]amino}pyrimidine-5-carboxylate] |
| ≤ 1 | CCOC(=O)c1cnc(NCCNc2ccc([N+](=O)[O-])cn2)nc1-c1ccc(Cl)cc1 [ethyl 4-(4-chlorophenyl)-2-({2-[(5-nitro(2-pyridyl))amino]ethyl}amino)pyrimidine-5-carboxylate] |
| ≤ 1 | CCOC(=O)c1c(CC)nc(NCCNc2ccc([N+](=O)[O-])cn2)nc1-c1ccc(C#N)cc1 [ethyl 4-(4-cyano-phenyl)-6-ethyl-2-({2-[(5-nitro(2-pyridyl))amino]ethyl}amino)pyrimidine-5-carboxylate] |
| ≤ 1 | CCOC(=O)c1cnc(NCCNc2cc(C)c([N+](=O)[O-])cn2)nc1-c1ccc(C#N)cc1 [ethyl 4-(4-cyanophenyl)-2-({2-[(4-methyl-5-nitro(2-pyridyl))amino]ethyl}amino)pyrimidine-5-carboxylate] |
| ≤ 1 | CCOC(=O)c1cnc(NCCNc2ccc([N+](=O)[O-])cc2)nc1-c1ccc(C#N)cc1 [ethyl 4-(4-cyanophenyl)-2-({2-[(4-nitrophenyl)amino]ethyl}amino)-pyrimidine-5-carboxylate] |
| ≤ 1 | CCOC(=O)c1c(-c2ccc(C#N)cc2)nc(NCCNc2ccc([N+](=O)[O-])cn2)nc1-c1ccc([N+](=O)[O-])cc1 [ethyl 4-(4-cyanophenyl)-2-({2-[(5-nitro(2-pyridyl))amino]ethyl}amino)-6-(4-nitrophenyl)pyrimidine-5-carboxylate] |
| ≤ 1 | CCOC(=O)c1cnc(NCCNc2ccc([N+](=O)[O-])cn2)nc1-c1ccc(C#N)cc1 [ethyl 4-(4-cyanophenyl)-2-({2-[(5-nitro(2-pyridyl))amino]ethyl}amino)pyrimidine-5-carboxylate] |
| ≤ 10 | CCOC(=O)c1cnc(NCCc2ccccn2)nc1-c1ccc(C#N)cc1 [ethyl 4-(4-cyanophenyl)-2-[(2-(2-pyridyl)ethyl)amino]-pyrimidine-5-carboxylate] |
| ≤ 10 | CCNC(=O)c1ccc(NCCNc2ncc(C(=O)OCC)c(-c3ccc(C#N)cc3)n2)nc1 [ethyl 4-(4-cyanophenyl)-2-[(2-{[5-(N-ethylcarbamoyl)(2-pyridyl)]amino}-ethyl)amino]pyrimidine-5-carboxylate] |
| ≤ 10 | CCOC(=O)c1cnc(NCCNc2ccc(C(=O)N3CCOCC3)cn2)nc1-c1ccc(C#N)cc1 [ethyl 4-(4-cyanophenyl)-2-[(2-{[5-(morpholin-4-ylcarbonyl)(2-pyridyl)]amino}ethyl)amino]pyrimidine-5-carboxylate] |
| ≤ 1 | CCOC(=O)c1cnc(NCCNc2ccc(C(F)(F)F)cn2)nc1-c1ccc(C#N)cc1 [ethyl 4-(4-cyanophenyl)-2-[(2-{[5-(trifluoromethyl)(2-pyridyl)]amino}ethyl)-amino]pyrimidine-5-carboxylate] |
| ≤ 10 | CCOC(=O)c1cnc(NCCNc2ccc([N+](=O)[O-])c(NC)n2)nc1-c1ccc(C#N)cc1 [ethyl 4-(4-cyanophenyl)-2-[(2-{[6-(methylamino)-5-nitro(2-pyridyl)]amino}ethyl)amino]pyrimidine-5-carboxylate] |
| ≤ 10 | CCOC(=O)c1cnc(NCCNc2ccc3ccccc3n2)nc1-c1ccc(C#N)cc1 [ethyl 4-(4-cyanophenyl)-2-{[2-(2-quinolylamino)ethyl]amino}pyrimidine-5-carboxylate] |
| ≤ 10 | CCOC(=O)c1cnc(NCCc2cccc(OC)c2)nc1-c1ccc(C#N)cc1 [ethyl 4-(4-cyanophenyl)-2-{[2-(3-methoxyphenyl)ethyl]amino}pyrimidine-5-carboxylate] |
| ≤ 10 | CCOC(=O)c1cnc(NCCNc2ncccn2)nc1-c1ccc(C#N)cc1 [ethyl 4-(4-cyanophenyl)-2-{[2-(pyrimidin-2-ylamino)ethyl]amino}pyrimidine-5-carboxylate] |
| ≤ 1 | CCOC(=O)c1cnc(NCCNc2ccc([N+](=O)[O-])cn2)nc1-c1ccc(CC)cc1 [ethyl 4-(4-ethylphenyl)-2-({2-[(5-nitro(2-pyridyl))amino]ethyl}amino)pyrimidine-5-carboxylate] |
| ≤ 1 | CCOC(=O)c1cnc(NCCNc2ccc([N+](=O)[O-])cn2)nc1-c1ccc(F)cc1 [ethyl 4-(4-fluorophenyl)-2-({2-[(5-nitro(2-pyridyl))amino]ethyl}amino)pyrimidine-5-carboxylate] |
| ≤ 10 | CCOC(=O)c1cnc(NCCc2ccccn2)nc1-c1ccc(F)cc1 [ethyl 4-(4-fluorophenyl)-2-[(2-(2-pyridyl)ethyl)amino]pyrimidine-5-carboxylate] |

| Structure (SMILES) | IC50 [µM] |
| --- | --- |
| CCCCOc1ccc(-c2nc(NCCNc3ccc([N+](=O)[O-])cn3)ncc2C(=O)OCC)cc1 [ethyl 4-(4-butoxyphenyl)-2-({2-[(5-nitro(2-pyridyl))amino]ethyl}amino)pyrimidine-5-carboxylate] | ≤ 10 |
